Source: patent US20210244735A1, “COMPOSITIONS AND METHODS FOR TREATING MYELOFIBROSIS” (Impact Biomedicines, Inc., priority 2010, published 2021)
“Also recorded” adds a separate entry of the source. Structures can show the parent of a compound that is named as a salt. Where two headings read alike, the source gives them in different places. Marks after values point to notes of the source that are not given here.

Tested on: subjects with MF
[1] = patients who started at ≥680 mg
[2] = started at ≥680 mg, 24 patients not requiring RBC transfusions at baseline
[3] = subject 106-024, 800/680 mg/day, onset day 87, recovered/resolved
[4] = treatment-emergent laboratory finding, MTD subjects (N=40)
[5] = treatment-emergent, MTD subjects (N=40)

In the case of `Cc1cnc(Nc2ccc(OCCN3CCCC3)cc2)nc1Nc1cccc(S(=O)(=O)NC(C)(C)C)c1` [TG101348, N-tert-butyl-3-[(5-methyl-2-{[4-(2-pyrrolidin-1-ylethoxy)phenyl]amino}pyrimidin-4-yl)amino]benzenesulfonamide dihydrochloride monohydrate], the “Grades 3/4 asymptomatic increase in creatinine” value (overall) is reported as 0%, the “Grades 3/4 asymptomatic increase in serum lipase” value (overall) is reported as 10% and the “Gr1/2 serum creatinine elevation” value [1] is reported as 38%. For the same compound, the Gr1/2 transaminitis [1] was 38%, the Gr3 neutropenia [1] was 15% and the Gr3 thrombocytopenia [1] was 20%. It also gave a Gr4 neutropenia [1] of 0%, a Gr4 thrombocytopenia [1] of 10% and an asymptomatic hyperlipasemia [1] of 33%. For the same compound, the “dose-limiting toxicity (DLT)” value (seen at 800 mg/day, dihydrochloride monohydrate) was “asymptomatic grade 3 or 4 amylasemia/lipasemia that was reversible; also recorded: asymptomatic grade 3 or 4 hyperamylasemia (with or without hyperlipasemia) that was reversible”, the “Grade 3 anemia” value [2] was 42 % of patients and the “Grade 4 anemia” value [2] was 8 % of patients. The “serious adverse event Neutropenia, CTCAE Severity Grade” value (subject 101-047, 680/680 mg/day, onset day 52, recovered/resolved) was 2, the “serious adverse event Depression, CTCAE Severity Grade” value (subject 104-015, 360/520 mg/day, onset day 256, permanently discontinued, not recovered/not resolved) was 3* and the “serious adverse event Hyperlipasemia, CTCAE Severity Grade” value (“serious adverse event Hyperlipasemia” for short) (subject 105-013, 240/0 mg/day, onset day 356, recovered/resolved) was 4. The “serious adverse event Thrombocytopenia, CTCAE Severity Grade” value (subject 105-013, starting dose/dose at event 240/360 mg/day, onset day 215, recovered/resolved) was 4, the “serious adverse event Gallbladder pain, CTCAE Severity Grade” value (subject 105-056, 680/520 mg/day, onset day 95, recovered/resolved with sequelae) was 3 and the “serious adverse event Cerebrovascular accident, CTCAE Severity Grade” value (subject 105-056, 680/680 mg/day, onset day 22, recovered/resolved) was 4. The “serious adverse event Hyperlipasemia” value (subject 105-059, 680/520 mg/day, onset day 28, recovered/resolved) was 3, the “serious adverse event Hyperlipasemia” value (subject 105-059, 680/680 mg/day, onset day 8, recovered/resolved) was 3 and the “serious adverse event Dehydration, CTCAE Severity Grade” value (“serious adverse event Dehydration” for short) (subject 106-024, 800/400 mg/day, onset day 474, recovered/resolved) was 3. For the same compound, the “serious adverse event Tumor lysis syndrome, CTCAE Severity Grade” value (subject 106-024, 800/440 mg/day, onset day 366, recovered/resolved) was 3, the “serious adverse event Dehydration” value [3] was 2 and the “serious adverse event Diarrhea, CTCAE Severity Grade” value [3] was 3. The “serious adverse event Nausea, CTCAE Severity Grade” value [3] was 2, the “serious adverse event Vomiting, CTCAE Severity Grade” value [3] was 2 and the “serious adverse event Pleuritic pain, CTCAE Severity Grade” value (subject 106-033, 680/680 mg/day, onset day 8, recovered/resolved) was 2. For the same compound, the “serious adverse event Dehydration” value (subject 106-045, 680/440 mg/day, onset day 170, recovered/resolved) was 3, the “cytokine rebound upon discontinuation without prior dose reduction or tapering” value (subjects that were discontinued) was “did not experience “cytokine rebound”” and the “emergence of transfusion requirement” value (subjects who initiated treatment at 680 mg/day) was 72%. The “emergence of transfusion requirement” value (subjects who initiated treatment at 240-520 mg/day) was 33%, the “ALT increased Grade 2” value [4] was 8 (20%) subjects (%) and the “ALT increased Grade 3” value [4] was 2 (5%) subjects (%). The “ALT increased Grade 4” value [4] was 0 subjects (%), the “AST increased Grade 2” value [4] was 5 (13%) subjects (%) and the “AST increased Grade 3” value [4] was 1 (3%) subjects (%). The “AST increased Grade 4” value [4] was 0 subjects (%), the “Creatinine increased Grade 2” value [4] was 11 (28%) subjects (%) and the “Creatinine increased Grade 3” value [4] was 0 subjects (%). For the same compound, the “Creatinine increased Grade 4” value [4] was 0 subjects (%), the “Hyperamylasemia Grade 2” value [4] was 0 subjects (%) and the “Hyperamylasemia Grade 3” value [4] was 1 (3%) subjects (%). The “Hyperamylasemia Grade 4” value [4] was 1 (3%) subjects (%), the “Hyperkalemia Grade 2” value [4] was 3 (8%) subjects (%) and the “Hyperkalemia Grade 3” value [4] was 2 (5%) subjects (%). For the same compound, the “Hyperkalemia Grade 4” value [4] was 1 (3%) subjects (%), the “Hyperlipasemia Grade 2” value [4] was 4 (10%) subjects (%) and the “Hyperlipasemia Grade 3” value [4] was 3 (8%) subjects (%). The “Hyperlipasemia Grade 4” value [4] was 2 (5%) subjects (%), the “Hypocalcemia Grade 2” value [4] was 8 (20%) subjects (%) and the “Hypocalcemia Grade 3” value [4] was 3 (8%) subjects (%). The “Hypocalcemia Grade 4” value [4] was 0 subjects (%), the “Abdominal pain Grade 1” value [5] was 5 (13%) subjects (%) and the “Abdominal pain Grade 2” value [5] was 0 subjects (%). The “Abdominal pain Grade 3” value [5] was 0 subjects (%), the “Abdominal pain Grade 4” value [5] was 0 subjects (%) and the “Anorexia Grade 1” value [5] was 7 (18%) subjects (%). The “Anorexia Grade 2” value [5] was 0 subjects (%), the “Anorexia Grade 3” value [5] was 1 (3%) subjects (%) and the “Anorexia Grade 4” value [5] was 0 subjects (%). The “Constipation Grade 1” value [5] was 6 (15%) subjects (%), the “Constipation Grade 2” value [5] was 1 (3%) subjects (%) and the “Constipation Grade 3” value [5] was 0 subjects (%). The “Constipation Grade 4” value [5] was 0 subjects (%), the “Contusion Grade 1” value [5] was 5 (13%) subjects (%) and the “Contusion Grade 2” value [5] was 0 subjects (%). For the same compound, the “Contusion Grade 3” value [5] was 0 subjects (%), the “Contusion Grade 4” value [5] was 0 subjects (%) and the “Diarrhea Grade 1” value [5] was 21 (53%) subjects (%). For the same compound, the “Diarrhea Grade 2” value [5] was 4 (10%) subjects (%), the “Diarrhea Grade 3” value [5] was 5 (13%) subjects (%) and the “Diarrhea Grade 4” value [5] was 0 subjects (%). For the same compound, the “Edema peripheral Grade 1” value [5] was 7 (18%) subjects (%), the “Edema peripheral Grade 2” value [5] was 1 (3%) subjects (%) and the “Edema peripheral Grade 3” value [5] was 0 subjects (%). For the same compound, the “Edema peripheral Grade 4” value [5] was 0 subjects (%), the “Fatigue Grade 1” value [5] was 2 (5%) subjects (%) and the “Fatigue Grade 2” value [5] was 3 (8%) subjects (%). The “Fatigue Grade 3” value [5] was 1 (3%) subjects (%), the “Fatigue Grade 4” value [5] was 0 subjects (%) and the “Headache Grade 1” value [5] was 4 (10%) subjects (%). For the same compound, the “Headache Grade 2” value [5] was 1 (3%) subjects (%), the “Headache Grade 3” value [5] was 0 subjects (%) and the “Headache Grade 4” value [5] was 0 subjects (%). For the same compound, the “Nausea Grade 1” value [5] was 20 (50%) subjects (%), the “Nausea Grade 2” value [5] was 6 (15%) subjects (%) and the “Nausea Grade 3” value [5] was 2 (5%) subjects (%). The “Nausea Grade 4” value [5] was 0 subjects (%), the “Neutropenia Grade 3” value [5] was 6 (15%) subjects (%) and the “Neutropenia Grade 4” value [5] was 0 subjects (%). The “Proteinuria Grade 1” value [5] was 2 (5%) subjects (%), the “Proteinuria Grade 2” value [5] was 3 (8%) subjects (%) and the “Proteinuria Grade 3” value [5] was 0 subjects (%). For the same compound, the “Proteinuria Grade 4” value [5] was 0 subjects (%), the “Thrombocytopenia Grade 3” value [5] was 8 (20%) subjects (%) and the “Thrombocytopenia Grade 4” value [5] was 5 (13%) subjects (%). The “Vomiting Grade 1” value [5] was 20 (50%) subjects (%), the “Vomiting Grade 2” value [5] was 7 (18%) subjects (%) and the “Vomiting Grade 3” value [5] was 1 (3%) subjects (%). The “Vomiting Grade 4” value [5] was 0 subjects (%).
